Earlier results as cited in patent US12029740B2 (NANOCOPOEIA, LLC, priority 2020, dated 2024).
Counter-ions that a name gives are not always drawn.

Legend:
[1] = low/moderate aqueous solubility and low permeability

solubility with increasing pH | Biopharmaceutical Classification System (BCS) class [1] | Structure (SMILES)
significantly decreases |  | Cc1cn(-c2cc(NC(=O)c3ccc(C)c(Nc4nccc(-c5cccnc5)n4)c3)cc(C(F)(F)F)c2)cn1 [nilotinib, 4-methyl-N-[3-(4-methyl-1H-imidazol-1-yl)-5-(trifluoromethyl)phenyl]-3-[[4-(3-pyridinyl)-2-pyrimidinyl]amino]-benzamide]
 | Class IV | Cc1cn(-c2cc(NC(=O)c3ccc(C)c(Nc4nccc(-c5cccnc5)n4)c3)cc(C(F)(F)F)c2)cn1 [Nilotinib monohydrochloride monohydrate]
